Source: US9382433B2, “Ketocoumarins as photoinitiators and photosensitizers in printing inks and coatings” (SUN CHEMICAL CORPORATION, priority 2012, dated 2016)

Tests used:
[1] = Cure index (set-off cure test, sum of DL values); details: Offset Black Ink 2; ketocoumarin 5.10% in Inventive PI Blend 2; ~32 mJ per pass, 100 m/min; lower is superior cure
From the text: Offset Black Ink 2—based on a ketone functional resin, tri- and tetra-functional alkoxylated acrylates and approximately 14% carbon black pigment.
(§1) The inks were printed onto a carton board substrate (Incada Exel coated board from Iggesund) to a density of approximately 1.8-2.0 using an IGT C1 print proofer. These were cured at 100 m/min using a Primarc UV rig fitted with a single 300 W/inch medium pressure mercury lamp, operating at half power (˜32 mJ per pass). The number of passes required to cure was measured by a “set-off cure test” which is done by visually comparing the extent to which after each pass the ink has transferred to a piece of blank substrate under 10 tons pressure for 5 seconds. […] The amount of set-off is then measured using color computer software, which determines the average color density of the set-off ink compared to a blank piece of substrate. The amount of set-off is measured as the lightness “DL” of the blank substrate vs. the transferred ink film, measured using a Spectraflash 650 spectrophotometer. The DL value is measured for each pass of the ink underneath the curing lamp, using a fresh piece of substrate for each pass until the ink is deemed fully cured and there is no visible ink transfer. The cure index is calculated by adding the individual DL values and rounding the sum to the nearest whole number. For example, if 4 passes under the curing lamp was required to cure a given ink film, and the DL values for the first 3 passes were 8.89, 5.27, 2.15 respectively, then the sum of the figures would be 16.31, which would be rounded to a cure index of 16. Note that there is no DL value taken after the 4th pass, as the ink film was determined to be fully cured by the visual absence of ink transferred during the set-off cure test. […] The tables below show the results for the evaluations.

[2] = Cure index (set-off cure test, sum of DL values); details: Offset Black Ink 1; ketocoumarin 5.10% in Inventive PI Blend 1; ~32 mJ per pass, 100 m/min; lower is superior cure
Experimental: Offset Black Ink 1—based on a urea-formaldehyde resin, trifunctional acrylate and approximately 13% carbon black pigment.
as §1

[3] = Cure index (set-off cure test, sum of DL values); details: Offset Black Ink 3; ketocoumarin 6.000% in Inventive PI Blend 3; ~32 mJ per pass, 100 m/min; lower is superior cure
From the text: Offset Black Ink 3—based on a ketone functional resin, tri- and tetra-functional alkoxylated acrylates and approximately 14% carbon black pigment.
as §1

[4] = Cure index of ink-jet magenta inks; details: ketocoumarin 6.167% in Inventive Ink-Jet PI Blend, 84 mJ per pass, 70 m/min, rounded to nearest 0.5
Experimental: Magenta ink-jet inks were prepared to assess the performance of the inventive ketocoumarin materials an ink-jet ink formulation. The magenta ink formulation is based on 17.5% of a magenta pigment concentrate and a blend of difunctional monomers which includes propoxylated neopentylglycol diacrylate, dipropyleneglycol diacrylate, tripropylene glycol diacrylate (all at approximately 15%) and 2-(2-Vinyloxyethoxy)ethyl acrylate (at approximately 20%).
The inks were printed onto white PE TopTrans top-coated label substrate using a No. 2 K-Bar (red). The No. 2 K-bar gives a film thickness of about 12 μm. The inks were cured at 70 m/min using a Primarc UV rig fitted with a single 300 W/inch medium pressure mercury lamp, operating at full power (84 mJ per pass). Cure index was determined using the same cure index test described above for the black offset inks.
The cure index results in Table 12 were determined using the same test method as described for the black offset inks in Tables 7-9 with one exception; in Table 12 the cure index figures were rounded to the nearest 0.5 rather than to the nearest whole number. It should be noted that the cure index numbers are a representation of cure at a relatively low UV lamp dose compared to that used in a commercial application. A commercial application would typically use higher UV lamp dosage and all of the above formulations would perform adequately under these conditions. The experiments have been set up to highlight differences in cure and therefore have been carried out at relatively low cure dose. In the above experiments an ink with a cure index of less than 4-5 would cure adequately using commercial lamp conditions. Inks with a cure index of much lower than 4-5 are, therefore, performing very well.

[5] = Solubility by visual inspection of ink and prints; format: physicochemical; parameters: key: Good=Soluble (no solid bits in the ink and good printability); OK=Partially insoluble (some solid bits in the ink and slightly poor printability); Poor=Very noticeable insolubility (very noticeable solid bits in the ink and poor printability); details: visual inspection of inks and prints
Experimental: The solubility of the materials was assessed by visual inspection of the inks and from visual inspection of the prints. Insolubility is reported as follows: Good=Soluble (no solid bits in the ink and good printability); OK=Partially insoluble (some solid bits in the ink and slightly poor printability); Poor=Very noticeable insolubility (very noticeable solid bits in the ink and poor printability).

| Compound | Solubility in Ink-Jet Magenta Ink [5] | Solubility in Offset Black Ink 1 [5] | Solubility in Offset Black Ink 2 [5] | Solubility in Offset Black Ink 3 [5] | Cure index [1] | Cure index [2] | Cure index [3] | Cure index [4] |
| --- | --- | --- | --- | --- | --- | --- | --- | --- |
| COc1ccc2cc(C(=O)c3ccccc3)c(=O)oc2c1 [Comparative Example 2, reference compound] | Poor | Poor | Poor | Poor | 13 | 52 | 33 | <1 |
| O=C(COc1ccc2cc(C(=O)c3ccccc3)c(=O)oc2c1)OCCOCCOCCOC(=O)COc1ccc2cc(C(=O)c3ccccc3)c(=O)oc2c1 [Inventive Example 11] | OK | OK | OK | OK | 23 | 53 | 42 | 1 |
| O=C(COc1ccc2cc(C(=O)c3ccccc3)c(=O)oc2c1)OCCOCCOC(=O)COc1ccc2cc(C(=O)c3ccccc3)c(=O)oc2c1 [Inventive Example 5] | Good |  |  |  |  |  |  | 9 |
| O=C(c1ccccc1)c1cc2ccccc2oc1=O [Comparative Example 1, reference compound] | Poor | Poor | Poor | Poor | 24 | 28 | 27 | 38 |

Now from value to compound, other results behind:

| Solubility in Ink-Jet Magenta Ink [5] | Solubility in Offset Black Ink 1 [5] | Solubility in Offset Black Ink 2 [5] | Solubility in Offset Black Ink 3 [5] | Compound | Cure index [1] | Cure index [2] | Cure index [3] | Cure index [4] |
| --- | --- | --- | --- | --- | --- | --- | --- | --- |
| Poor | OK | OK | OK | CCC(COC(=O)COc1ccc2cc(C(=O)c3ccccc3)c(=O)oc2c1)(COC(=O)COc1ccc2cc(C(=O)c3ccccc3)c(=O)oc2c1)COC(=O)COc1ccc2cc(C(=O)c3ccccc3)c(=O)oc2c1 [Inventive Example 14] | 7 | 28 | 14 | 1 |
| Poor | OK | OK | OK | CCCCCCCCCCCCOC(=O)COc1ccc2cc(C(=O)c3ccccc3)c(=O)oc2c1 [Inventive Example 16] | 31 | 52 | 56 | 5 |
| Poor | OK | OK | OK | CCOC(=O)COc1ccc2cc(C(=O)c3ccccc3)c(=O)oc2c1 [Inventive Example 12] | 15 | 46 | 26 | 3 |
